From publication PMC5907308, “21st Brazilian Diabetes Society Congress” (Diabetology & Metabolic Syndrome, 2018)

Key:
[1] = system: patients submitted to liver transplantation; format: in vivo, human; details: Tacrolimus 95% CI 1.2–32.5, p = 0.029; PDN 95% CI 2.4–21, 8, p < 0.001
Description: A total of 152 patients were included. […] Comparisons were done with Chi square tests and analysis of independent risk factors with multivariate logistic regression.

pregnancies = details: general population: 3-4%; no reference given; cited from earlier work
Description: Discussion: In transplanted pregnant women, hypertension and DM increase the risk of prematurity, restricted intrauterine growth (IUGR) and graft loss. […] In addition, there is a higher rate of small newborns for GI. […] As for immunosuppressants, there are few reports. Tacrolimus appears safe (prevalence of congenital malformations: 4-5% ...

[2] = system: patient with mucormycosis; assay: Oral mucormycosis in a diabetic patient, case report; format: in vivo, human; details: treated for 10 days
Description: Case presentation: person, admitted with diabetic ketoacidosis. On the 5th day of hospitalization, they complained of odynophagia, without other symptoms. On examination of the oral cavity, was found an ulcerated, infiltrative, whitish, and non-removable lesion in the soft palate (Fig. 1). No abnormalities were found in laboratory tests.

[3] = system: patients with diabetic dyslipidemia; details: fenofibrate in combination with simvastatin, subgroup with diabetic dyslipidemia; ref [1]; cited from earlier work
patient = assay: Neonatal diabetes, therapeutic test with sulfonylurea, case report; format: in vivo, human; details: oral, gradual elevation, insulin suspended; discharged on 20 mg/day
Experimental: Case presentation: A patient, presenting hypoactivity, sialorrhea and seizures 2 days ago, was admitted to a university hospital. During hospitalization they were evaluated by neurology that identified a discrete delay in neuropsychomotor development. […] Serologies for toxoplasmosis, rubella and measles negative. History of maternal varicella during gestation. […] Due to the delay in carrying out a genetic study to close the diagnosis, material was collected and sent to the genetic service and prescribed sulfonylurea (glibenclamide) as a therapeutic test. The oral medication was initiated in low doses with gradual elevation, and progressive reduction of the insulin until its suspension. […] They were discharged from the hospital using glibenclamide 20 mg/day. The patient is in outpatient follow-up at the endocrinology department of the João de Barros Barreto University Hospital. Endocrinology work team is still waiting for genetic analysis.

[4] = system: patient with diffuse cutaneous leishmaniasis; details: side effect, literature; no reference given; cited from earlier work
[5] = system: patient with diffuse cutaneous leishmaniasis; assay: Pentamidine-induced diabetes mellitus, case report; format: in vivo, human
Experimental: Case report: Patient two, diagnosis of diffuse cutaneous leishmaniasis in treatment since 1995 without therapeutic response after several treatments. Regular follow up with infectology, in maintenance treatment with miltefosine and in treatment with pentamidine every 30 days from January 2017, with a marked improvement of cutaneous lesions. During the follow-up, in consultation in July 2017, they complained of weight loss, polydipsia and nocturia, with serum glycemia of 901 mg/dL. Patient was referred to the hospital where they were diagnosed with a non-ketosis hyperosmolar state, with tests showing serum osmolarity of […] and glycated hemoglobin 10.31%. During hospitalization and after discharge maintained insulin use for glycemic control. Treatment of leishmaniasis with pentamidine was discontinued and will keep following-up with infectology and endocrinology.

[6] = system: patient with metastatic lung adenocarcinoma; assay: New-onset diabetes on Nivolumab, case report (A288); format: in vivo, human
Experimental: Case report: A patient was started on Nivolumab infusions every 15 days after chemotherapy refractory progressive metastatic lung adenocarcinoma, with no prior history of diabetes. After 4 infusions, they experienced xerostomia, polyuria, polydipsia and asthenia. Upon emergency evaluation, they were started on I.V. insulin after a capillary glycemia of 600 mg/dL. They were discharged home with 10 units of NPH insulin bedtime, with a referral to the endocrinologist. […] Insulin was titrated for a total daily dose of 0.5 UI/kg. […] Nivolumab was withdrawn and no glycemic improvement nor insulin dose reductions were noted.

[7] = system: patient with squamous cell carcinoma of the hypopharynx; assay: Autoimmune diabetes after Nivolumab therapy, case report (A402); format: in vivo, human; details: anti-GAD and anti-ICA positive
Description: Case report: A patient with diagnosis of squamous cell carcinoma of the hypopharynx and pulmonary metastasis 2 years ago, after a failed treatment with conventional chemotherapy and radiotherapy, started a new class of cancer medication called Nivolumab—human immunoglobulin G4 monoclonal antibody. […] Investigation about the cause of the onset of diabetes founded positivity for diabetes antibodies, anti-GAD and anti-ICA, confirming autoimmune diabetes. Patient has been on intensive insulin therapy since then, with difficult glycemic control due to great glycemic variability.

[8] = system: inpatient population with diabetes; assay: Degludeca vs NPH, both with Regular Insulin, in hospital (8 patients per group); details: human, in vivo
Experimental: Methods: We conducted a retrospective, randomized study to compare the efficacy and safety of different basal insulin (Degludeca versus NPH), both on Basal-bolus insulin regimen on inpatient population with diabetes. Data were collected from the medical records, between May, 2016 until April, 2017. 8 patients were selected and randomized in each group. We established optimal glycemic control for patients with capillary glucose below 140 mg/dl in fasting and before main meals and below 180 mg/dL for 2 h after main meals. The criteria for excellent glycemic control was to achieve at least 70% within the previously established target and for acceptable glycemic control, those patients who had between 60% and 69% of the glycemia within the established target. The total number of hypoglycemia was assessed and classified as severe hypoglycemia (< 40 mg/dl) and mild hypoglycemia (< 70 mg/dl) as well as nocturnal hypoglycemia. In addition, the time required to achieve excellent or acceptable glycemic control was also analyzed.

T1D patients < 18 years = assay: Real-world clinical follow-up of T1D patients < 18 years switched to insulin degludec; format: in vivo, human; details: n = 9
Description: Information about HbA1c, insulin dose, weight and frequency of hypoglycaemia (self-reported by patients/parents) were collected in every consultant.

patients with T2D = assay: Network meta-analysis Gla-300 vs IDeg (inputs of the cost-effectiveness model); format: in vivo, human; details: estimated by network meta-analysis
Description: Methods: This modelling analysis simulated a cohort representing patients in the EDITION 2 and 3 trials using the IMS Core Diabetes Model with a time horizon of 50 years (lifetime) for 1,000,000 patients starting at 62 years old. […] The treatment cost was $1,561 per SHE and $13.65 per NSHE (2015 $). Utilities to estimate quality-adjusted life years (QALYs) for multiple comorbidities were applied using the minimum utility approach. A disutility of -0.0118 was applied for SHE, and method of diminishing marginal disutility for NSHE.

child with CGL type 2 = assay: Case report: high doses of insulin in congenital generalized lipodystrophy; format: in vivo, human
Experimental: Case: Child with clinical diagnosis of CGL type 2 and diagnosis of diabetes for 1 year. Using Glargina and Lispro insulin basal/bolus (5.1 IU/kg/day) presented mean daily capillary glycemia above 600 mg/dl, associated with irritability, low weight and voracious appetite. Interned for intravenous insulin therapy and nutritional adjustment with standardized diet of 1600 kcal/day fractionated in 7 meals. Initiated continuous infusion of regular insulin (RI), 6.1UI/kg/day. […] Subsequently, it was modified to intramuscular administration, in 5 application times, without differences in glycemic averages. On the 36 th day, Degludeca insulin was introduced (9.3 IU/kg/day) associated with RI (18.2 U/kg/day), evolving within the first 24 h with improved glycemia (180 ± 42 mg/dl). […] After approximately fivefold increase in the initial insulin dose, there was improvement in glycemia, irritability, weight gain and decreased appetite.

patient with DRIASM = assay: Insulin degludec in DRIASM, case report; format: in vivo, human
Description: Discussion: DRIASM is a rare syndrome, characterized by extreme resistance to SC and IM insulin, whose pathophysiology remains unknown. There are few treatments available and most are ineffective. The use of intraperitoneal insulin pump is the therapy with the best result so far, but it is not available in Brazil. Another possibility is the PTA, initially proposed by our group and then performed in other countries. […] After SC injection, the di-hexamers form a stable depot of multi-hexamer chains, with gradual dissociation of these chains into absorbed monomers.

type 2 diabetic patient = assay: Case report: liraglutide added to insulin degludec and metformin; format: in vivo, human; details: 30 days of Insulin Degludec 16U with metformin
Experimental: patient one, type 2 diabetic for 3 years, using Gliclazide 60 mg/day and Metformin 1500 mg/day. They reported asthenia and difficulty losing weight. […] To optimize patient glycemic control and weight loss, Liraglutide 1.2 mg/day was initiated. […] The insulin dose was reduced to 10 U and reassessed in 30 days for possible discontinuation of insulin therapy. GLP- 1 receptor agonists stimulate insulin secretion in a […] manner, inhibit glucagon secretion and hepatic glucose output, delay gastric emptying, induce satiety, reduce appetite, and cause weight loss. […] It is a therapeutic option with action well established in weight loss, metabolic and glycemic improvement in the DM2 patient. However, its action on HbA1C reduction was independent of weight loss, evidencing intensive glycemic control with HbA1C between 6.5 and 7.0% even with discrete or even absent weight loss.

[9] = system: elderly patients with T2DM; assay: Pilot randomized trial Ideg vs Iglar-U100 with CGM; format: in vivo, human; details: for 24-h mean glucose, median (minimum–maximum): CGM after 2 weeks, n = 5 per group, P = 0.84; for standard deviation from the mean glucose, median (minimum–maximum): CGM, P = 0.22
Experimental: Methods: It is a pilot study with ten patients during six weeks, randomized, prospective, controlled and open label trial. Inclusion criteria: T2DM, age over 60 years, A1C from 7 to 10%, use of NPH insulin with or without oral antidiabetic drugs. […] They were evaluated for glucose variability (GV) and HYPOs by continuous glucose monitoring (CGM) after 2 weeks of treatment with either insulin.

[10] = system: patients with DM 1 and DRIASM; assay: Case reports: IDeg in resistance to subcutaneous and intramuscular insulin (DRIASM); format: in vivo, human; details: patient 1; IDeg since December 2015
Experimental: It was suspected of diabetes mellitus with resistance to insulin administered subcutaneously or intramuscularly (DRIASM). […] After that it was decided to perform a therapeutic test with IDeg. […] They remained in use of IDeg 80 UI/d and lispro 600 UI/d. […] An insulin challenge test was performed with SC and IM NPH/Glargina/Detemir and IV regular insulin. […] They remained in use of IDeg 80 UI/d and aspart 2000 UI/d.

[11] = system: patients with T2DM uncontrolled on oral antidiabetic agents; assay: LixiLan-O, time to glycemic control (Kaplan–Meier), post hoc; format: in vivo, human; details: LL-O
Experimental: The Kaplan–Meier method was used to estimate time to control, defined as time (days) to first achieve HbA1c < 7% or FPG ≤ 130 mg/dL. […] In addition to lowering FPG via iGlar, iGlarLixi lowers PPG, likely contributing to its greater efficacy in achieving glycemic control vs. iGlar alone. […] Study codes: NCT02058160 and NCT02058147. This is an ENCORE abstract previously presented at ADA 2017. Funding and editorial support provided by Sanofi (Fig. 1)

[12] = system: subjects with T2D inadequately controlled on IGlarU100 and metformin; assay: DUAL V 26-week open-label treat-to-target trial; format: in vivo, human

C=CC[C@@H]1/C=C(\C)C[C@H](C)C[C@H](OC)[C@H]2O[C@@](O)(C(=O)C(=O)N3CCCC[C@H]3C(=O)O[C@H](/C(C)=C/[C@@H]3CC[C@@H](O)[C@H](OC)C3)[C@H](C)[C@@H](O)CC1=O)[C@H](C)C[C@@H]2OC [Tacrolimus]
independent risk factor for PTDM, OR [1]: 6.3
prevalence of congenital malformations (pregnancies): 4-5%

C[C@@H]1[C@H](O)[C@@H](C)/C=C/C=C/C=C/C=C/C=C/C=C/C=C/[C@H](O[C@@H]2O[C@H](C)[C@@H](O)[C@H](N)[C@@H]2O)C[C@@H]2O[C@](O)(C[C@@H](O)C[C@@H](O)[C@H](O)CC[C@@H](O)C[C@@H](O)CC(=O)O[C@H]1C)C[C@H](O)[C@H]2C(=O)O [amphotericin B]
clinical response [2]: favorable response

CC(C)OC(=O)C(C)(C)Oc1ccc(C(=O)c2ccc(Cl)cc2)cc1 [fenofibrate]
primary outcomes reduced compared to placebo [3]: about 30%

COc1ccc(Cl)cc1C(=O)NCCc1ccc(S(=O)(=O)NC(=O)NC2CCCCC2)cc1 [glibenclamide]
clinical evolution (patient): good glycemic control and improved neurological symptoms

N=C(N)c1ccc(OCCCCCOc2ccc(C(=N)N)cc2)cc1 [pentamidine]
hyperglycemia reported, cases [4]: 1-5%
glycated hemoglobin ([5]; in vivo): 10.31%
serum osmolarity ([5]; non-ketosis hyperosmolar state): 306 mOsm/L
serum glycemia ([5]; pentamidine every 30 days from January 2017, July 2017): 901 mg/dL

Nivolumab
capillary glycemia ([6]; after 4 infusions, every 15 days): 600 mg/dL
C-peptide ([6]; in vivo): 0.34 ng/dL
possible adverse event ([6]; in vivo): New-onset diabetes presenting with Diabetic Ketoacidosis and low levels of Cpeptide
presentation after the third cycle [7]: hyperglycemia, polyuria and polydipsia

insulin degludec [IDeg]
time to achieve excellent glycemic control, average [8]: 4 days
Median HbA1c at 6 months after switch (T1D patients < 18 years): 7.52%
Median HbA1c before switch (T1D patients < 18 years; on previous basal insulin or CSII): 8.17%
A1C reduction over 24 weeks (patients with T2D): 0.98%
blood glucose level (child with CGL type 2; after the first 24 h of Degludeca with RI): 232.6 ± 74.7 mg/dL
glycemia (child with CGL type 2; first 24 h of Degludeca 9.3 IU/kg/day with RI 18.2 U/kg/day): 180 ± 42 mg/dL
treatment of DRIASM (patient with DRIASM; case report, extreme resistance to SC and IM insulin): effective in the treatment of DRIASM, with reduction in hospital admissions and DKA episodes
absorption and plasma glucose in test (patient with DRIASM; differently from all previously basal insulins): able to be absorbed and to reduce plasma glucose
fasting glycemia (GJ) (type 2 diabetic patient): 171 mg/dL
HbA1c (type 2 diabetic patient; […] before): 8.2%
24-h mean glucose, median (minimum–maximum) [9]: 168 (151–206) mg/dL
standard deviation from the mean glucose, median (minimum–maximum) [9]: 69 (42– 83)
hospitalizations due to DKA [10]: reduction of hospitalizations

insulin glargine [Gla-100]
Days to first HbA1c <7%, median [11]: 166.0 days
mean fasting SMBG after 26 weeks ([12]; NS): 5.6 mmol/L
Mean HbA1c after 26 weeks of treatment ([12]; in vivo): 7.1%
Mean HbA1c, baseline ([12]; in vivo): 8.2%
24-h mean glucose, median (minimum–maximum) [9]: 169 (138–193) mg/dL
standard deviation from the mean glucose, median (minimum–maximum) [9]: 45 (41–66)
